Test results taken from patent publication US10857105B2, “Compounds and compositions for intracellular delivery of therapeutic agents” (ModernaTX, Inc., priority 2017, dated 2020).

Tests used:
[1] = Encapsulation efficiency of RNA in nanoparticle compositions (RIBOGREEN assay); assay type: physicochemical; settings: Table 1A; lipid:DSPC:cholesterol:PEG-DMG 50:10:38.5:1.5 mol %
Description: For nanoparticle compositions including an RNA, a QUANT-IT™ RIBOGREEN® RNA assay (Invitrogen Corporation Carlsbad, Calif.) can be used to evaluate the encapsulation of an RNA by the nanoparticle composition. The samples are diluted to a concentration of approximately 5 μg/mL, in a TE buffer solution (10 mM Tris-HCl, 1 mM EDTA, pH 7.5). 50 μL of the diluted samples are transferred to a polystyrene 96 well plate and either 50 μL of TE buffer or 50 μL of a 2% Triton X-100 solution is added to the wells. The plate is incubated at a temperature of 37° C. for 15 minutes. The RIBOGREEN® reagent is diluted 1:100 in TE buffer, and 100 μL of this solution is added to each well. The fluorescence intensity can be measured using a fluorescence plate reader (Wallac Victor 1420 Multilabel Counter; Perkin Elmer, Waltham, Mass.) at an excitation wavelength of, for example, about 480 nm and an emission wavelength of, for example, about 520 nm. The fluorescence values of the reagent blank are subtracted from that of each of the samples and the percentage of free RNA is determined by dividing the fluorescence intensity of the intact sample (without addition of Triton X-100) by the fluorescence value of the disrupted sample (caused by the addition of Triton X-100).
(§1) Initial studies were performed to compare the delivery efficiency of nanoparticle compositions including various compounds according to Formula (I), (IA), (IB), (II), (IIa), (IIb), (IIc), (IId), (IIe), (IIf), (IIg), or (III). The cationic lipid MC3 is a current standard in the art. Accordingly, the standard MC3 formulation including about 50 mol % MC3, about 10 mol % DSPC, about 38.5 mol % cholesterol, and about 1.5 mol % PEG-DMG was used as a basis for this study. Nanoparticle compositions including DSPC as a phospholipid, cholesterol as a structural lipid, PEG-DMG as a PEG lipid, an RNA, and a compound according to Formula (I), (IA), (IB), (II), (IIa), (IIb), (IIc), (IId), (IIe), (IIf), (IIg), or (III) selected from Compounds 1-159, 168-170, and 173-175 were prepared according to or via methods similar to those described in Examples 1 and 2. The ratios of the lipids were 50:10:38.5:1.5 mol % for the lipid according to Formula (I), (IA), (IB), (II), (IIa), (IIb), (IIc), (IId), (IIe), (IIf), (IIg), or (III):DSPC:cholesterol:PEG-DMG. The RNA used was an mRNA encoding luciferase (Luc) or hEPO, wherein each uridine was replaced N1-methyl pseudouridine. Tables 1A-1E summarize the content and characteristics of the formulations.

modified luciferase = experiment: Luciferase expression in liver, lung, spleen and femur 6 hours after intravenous administration to mice; assay type: in vivo; settings: 6 hours after intravenous 0.5 mpk, mice
Description: The efficacy of the nanoparticle compositions presented in Table 1A was further evaluated by measuring the expression of modified luciferase in the liver, lung, spleen, and femur upon administration of a given composition. Formulations were administered intravenously to mice (n=3) at a dosage of 0.5 mpk and bioluminescence measured after 6 hours. The standard MC3 formulation and a PBS control were also tested. […] Flux in the liver was lowest for compositions including Compounds 58, 59, 137, and 141. Flux in the spleen was highest for compositions including Compounds 4, 7, 33, 34, 48, 53, 108, 129, 130, and 148, and lowest for compositions including Compounds 9, 59, 124, and 141.

[2] = Particle size and polydispersity index of nanoparticle compositions (Zetasizer Nano ZS); assay type: physicochemical
Description: A Zetasizer Nano ZS (Malvern Instruments Ltd, Malvern, Worcestershire, UK) can be used to determine the particle size, the polydispersity index (PDI) and the zeta potential of the nanoparticle compositions in 1×PBS in determining particle size and 15 mM PBS in determining zeta potential.
as §1

[3] = Table 1A, lipid:DSPC:cholesterol:PEG-DMG 50:10:38.5:1.5 mol %
[4] = Table 1C, compositions for subcutaneous administration

Compound	EE [1] [%]	Total Flux, Liver (modified luciferase)	Total Flux, Lung (modified luciferase)	Total Flux, Spleen (modified luciferase)	Size [2, 3] [nm]	Size [2, 4] [nm]	Size ([2]; Table 1D, compositions for subcutaneous administration, # formulated with hEPO mRNA) [nm]
CCCCCCCCCOC(=O)CCCCCCCN(CCO)CCCCCCCC(=O)OC(CC)CCCCCCCC (centres unmarked) [Compound 35, nonyl 8-((2-hydroxyethyl)(8-oxo-8-(undecan-3-yloxy)octyl)amino) octanoate]	90.82	1.63E+08	2.06E+06	1.23E+08	–	–	–
CCCCCCCCC(CCCCCCCC)OC(=O)CCCCCCCN(CCO)CCCC(=O)OCC1CC1CCCCCC (centres unmarked) [Compound 55, heptadecan-9-yl 8-((4-((2-hexylcyclopropyl)methoxy)-4-oxobutyl)(2-hydroxyethyl)amino)octanoate]	–	1.92E+09	7.02E+06	2.63E+07	91.6	–	–
CCCCCCCCC(CCCCCCCC)OC(=O)CCCCCCCN(CCO)CCCCCCCC(=O)OC(CCCCCCCC)C1CC1 (centres unmarked) [Compound 65, 1-Cyclopropylnonyl 8-((8-(heptadecan-9-yloxy)-8-oxooctyl)(2-hydroxyethyl)amino)octanoate]	–	9.56E+09	3.79E+07	6.57E+07	63.9	–	–
CCCCCCCCC(CCCCCCCC)OC(=O)CCCCCCCN(CCO)CCCC(=O)OC1CCC(CCCCC)CC1 (centres unmarked) [Compound 67, Heptadecan-9-yl 8-((2-hydroxyethyl)(4-oxo-4-((4-pentylcyclohexyl)oxy)butyl)amino)octanoate]	–	3.60E+09	1.68E+07	2.55E+07	77	–	–
CCCCCCCCC(CCCCCCCC)OC(=O)CCCCCCCN(CCO)CCCCCC(=O)OC1CCC(CCCCC)CC1 (centres unmarked) [Compound 68, Heptadecan-9-yl 8-((2-hydroxyethyl)(6-oxo-6-((4-pentylcyclohexyl)oxy)hexyl)amino)octanoate]	–	8.42E+09	3.98E+07	6.69E+07	76.8	–	–
CCCCCCCCC(C)OC(=O)CCCN(CCO)CCCCCCCC(=O)OC(CCCCCCCC)CCCCCCCC (centres unmarked) [Compound 70, Heptadecan-9-yl 8-((4-(decan-2-yloxy)-4-oxobutyl)(2-hydroxyethyl)amino)octanoate]	–	8.55E+08	6.32E+06	2.06E+06	73.7	–	–
CCCCCCCCC(CC)OC(=O)CCCN(CCO)CCCCCCCC(=O)OC(CCCCCCCC)CCCCCCCC (centres unmarked) [Compound 72, Heptadecan-9-yl 8-((2-hydroxyethyl)(4-oxo-4-(undecan-3-yloxy)butyl)amino)octanoate]	–	7.97E+08	1.05E+07	6.40E+06	76.8	77.3	–
CCCCCCCCC(CCC)OC(=O)CCCN(CCO)CCCCCCCC(=O)OC(CCCCCCCC)CCCCCCCC (centres unmarked) [Compound 74, Heptadecan-9-yl 8-((4-(dodecan-4-yloxy)-4-oxobutyl)(2-hydroxyethyl)amino)octanoate]	–	1.99E+09	6.93E+06	2.26E+07	65.6	–	–
CCCCCCCCC(CC)OC(=O)CCCCCN(CCO)CCCCCCCC(=O)OC(CCCCCCCC)CCCCCCCC (centres unmarked) [Compound 75, Heptadecan-9-yl 8-((2-hydroxyethyl)(6-oxo-6-(undecan-3-yloxy)hexyl)amino)octanoate]	–	1.45E+09	3.92E+06	5.66E+06	92.1	88.6	–
CCCCCCCCCOC(=O)CCCCCCCN(CCCCCCCC(=O)OC(CCCCCCCC)CCCCCCCC)CCCn1ccc(N)nc1=O [Compound 115, Heptadecan-9-yl 8-((3-(4-amino-2-oxopyrimidin-1(2H)-yl)propyl)(8-(nonyloxy)-8-oxooctyl)amino)octanoate]	–	–	–	–	64.5	–	–
CCCCCCCCCOC(=O)CCCCCCCN(CCCCCCCC(=O)OC(CCCCCCCC)CCCCCCCC)CCCn1cnc2c(N)ncnc21 [Compound 116, Heptadecan-9-yl 8-((3-(6-amino-9H-purin-9-yl)propyl)(8-(nonyloxy)-8-oxooctyl)amino)octanoate]	–	–	–	–	63.3	–	–
CCCCCCCCCOC(=O)CCCCCCCN(CCO)CCCCCCCC(=O)Oc1ccc(CCCCC)c(CCCCC)c1 [Compound 118, 3,4-Dipentylphenyl 8-((2-hydroxyethyl)(8-(nonyloxy)-8-oxooctyl)amino)octanoate]	–	1.72E+08	1.98E+06	2.49E+07	72.1	–	–
CCCCCCCCCOC(=O)CCCCCCCN(CCO)CCCCCCCC(=O)Oc1ccc(CCCCC)cc1 [Compound 119, Nonyl 8-((2-hydroxyethyl)(8-oxo-8-(4-pentylphenoxy)octyl)amino)octanoate]	–	–	–	–	60.8	–	–
CCCCCCCCC(CCCCCCCC)OC(=O)CCCCCCCN(C)CCCCCCCC(=O)OC(CCCCCCCC)CCCCCCCC [Compound 124, Di(heptadecan-9-yl) 8,8′-(methylazanediyl)dioctanoate]	–	8.46E+06	5.67E+04	8.06E+04	61.3	–	–
CCCCCCCCCOC(=O)CCCN(C)CCCCCCCC(=O)OC(CCCCCCCC)CCCCCCCC [Compound 126, Heptadecan-9-yl 8-(methyl(4-(nonyloxy)-4-oxobutyl)amino)octanoate]	–	7.41E+08	2.68E+06	1.87E+07	77.4	–	–
CCCCCCCCC(C)OC(=O)CCCCCCCN(CCO)CCCCCCCC(=O)N(CCCCCCCC)CCCCCCCC (centres unmarked) [Compound 130, Decan-2-yl 8-((8-(dioctylamino)-8-oxooctyl)(2-hydroxyethyl)amino)octanoate]	–	8.17E+09	5.88E+07	1.35E+09	107.1	–	–
CCCCCCCCCOC(=O)CCCCCCCN(CCCCCCCC(=O)OC(CCCCCCCC)CCCCCCCC)CCCN1C(=O)CNC1=O [Compound 174, Heptadecan-9-yl 8-((3-(2,5-dioxoimidazolidin-1-yl)propyl)(8-(nonyloxy)-8-oxooctyl)amino)octanoate]	–	–	–	–	84.4	–	–
CCCCCCCCCOC(=O)CCCCCCCN(CCCCCCCC(=O)OC(CCCCCCCC)CCCCCCCC)CCCNC(=N)N [Compound 207, Heptadecan-9-yl 8-((3-guanidinopropyl)(8-(nonyloxy)-8-oxooctyl)amino)octanoate]	–	–	–	–	–	–	81.4
